From US11939307B2, “Phenylmethyl-piperazine derivatives and antiviral uses thereof” (INSTITUTE OF MEDICINAL BIOTECHNOLOGY, CHINESE ACADEMY OF …, priority 2019, dated 2024)
Where two headings read alike, the source gives them in different places.

System: HCV
Experiment: Assay of anti-HCV activity in HCV-infected Huh7.5 cells (intracellular HCV RNA by one-step quantitative RT-PCR)
Type: cell-based
Details: Hepatitis C virus, read-out: inhibitory activities (inhibitory levels of the compounds against HCV replication)
How it was run: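 Huh7.5 cells were infected with HCV particles while compounds were added at 1 μM, then incubated 96 h at 37 °C, 5% CO2. Intracellular HCV RNA was quantified by one-step qRT-PCR, and inhibition was calculated relative to the viral control.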

[1] = compound at 1 μM, Huh7.5 cells infected with HCV, 96 hrs, intracellular HCV RNA vs viral control

Structure (SMILES) | inhibition at 1 µM [1] | inhibition at 1 µM (Huh7.5, 96 h)
CN(C)C1CCN(c2ccc(C#N)c(CN3CCN(C(c4ccc(Cl)cc4)c4ccc(Cl)cc4)CC3)c2)C1 (stereo not drawn) [Compound 85, 2-((4-(bis(4-chlorophenyl)methyl)piperazin-1-yl)methyl)-4-(3-(dimethylamino)pyrrolidin-1-yl)benzonitrile] | > 75% | –
CN(CCN1CCCC1)c1ccc(C#N)c(CN2CCN(C(c3ccc(Cl)cc3)c3ccc(Cl)cc3)CC2)c1 [Compound 86, 2-((4-(bis(4-chlorophenyl)methyl)piperazin-1-yl)methyl)-4-(methyl(2-(pyrrolidin-1-yl)ethyl)amino)benzonitrile] | > 75% | –
CN(CCN1CC1)c1ccc(C#N)c(CN2CCN(C(c3ccc(Cl)cc3)c3ccc(Cl)cc3)CC2)c1 [Compound 87, 4-((2-(aziridin-1-yl)ethyl)(methyl)amino)-2-((4-(bis(4-chlorophenyl)methyl)piperazin-1-yl)methyl)benzonitrile] | – | 50 to 75%
CN1CCCN(c2ccc(C#N)c(CN3CCN(C(c4ccccc4)c4ccc(Cl)cc4)CC3)c2)CC1 (stereo not drawn) [Compound 88, 2-((4-((4-chlorophenyl)(phenyl)methyl)piperazin-1-yl)methyl)-4-(4-methyl-1,4-diazepan-1-yl)benzonitrile] | > 75% | –
CN1CCCN(c2ccc(C#N)c(CN3CCN(C(c4ccncc4)c4ccc(Cl)cc4)CC3)c2)CC1 (stereo not drawn) [Compound 89, 2-((4-((4-chlorophenyl)(pyridin-4-yl)methyl)piperazin-1-yl)methyl)-4-(4-methyl-1,4-diazepan-1-yl)benzonitrile] | > 75% | –
CN(C)CCN(C)c1ccc(C#N)c(CN2CCC(C(c3ccc(Cl)cc3)c3ccc(Cl)cc3)CC2)c1 [Compound 90, 2-((4-(bis(4-chlorophenyl)methyl)piperidin-1-yl)methyl)-4-((2-(dimethylamino)ethyl)(methyl)amino)benzonitrile] | > 75% | –
CN1CCCN(c2ccc(C#N)c(CN3CCC(C(c4ccc(F)cc4)c4ccc(F)cc4)CC3)c2)CC1 [Compound 91, 2-((4-(bis(4-fluorophenyl)methyl)piperidin-1-yl)methyl)-4-(4-methyl-1,4-diazepan-1-yl)benzonitrile] | > 75% | –
CN1CCC(N(C)c2ccc(C(F)(F)F)c(CN3CCN(c4ccc(Cl)cc4)CC3)c2)C1 (stereo not drawn) [Compound 92] | > 75% | –
CCN(C)CCN(C)c1ccc(C#N)c(CN2CCN(C(C)c3cnccn3)CC2)c1 (stereo not drawn) [Compound 93, 4-[{2-[ethyl(methyl)amino]ethyl}(methyl)amino)-2-({4-[1-(pyrazin-2-yl)ethyl]piperazin-1-yl}methyl)benzonitrile] | 50 to 75% | –
CCN(CC)CCN(C)c1ccc(C(F)(F)F)c(CN2CCN(C(c3ccc(Cl)c(Cl)c3)c3ccc(Cl)c(Cl)c3)CC2)c1 [Compound 94, N1-(3-[{4-[bis(3,4-dichlorophenyl)methyl]piperazin-1-yl}methyl]-4-(trifluoromethyl)phenyl)-N2,N2-diethyl-N1-methylethan-1,2-diamine] | > 75% | –
Cc1cc(C(c2ccc(Cl)c(C)c2)N2CCN(Cc3cc(N(C)CCN(C)C)ccc3C#N)CC2)ccc1Cl [Compound 95, 2-({4-[bis(4-chloro-3-methylphenyl)methyl]piperazin-1-yl}methyl)-4-{[2-(dimethylamino)ethyl](methyl)amino)benzonitrile] | > 75% | –
CN1CCCN(c2ccc(C(F)(F)F)c(CN3CCN(C(c4ccc(Cl)c(Cl)c4)C4CCCCC4)CC3)c2)CC1 (stereo not drawn) [Compound 96, 1-[3-({4-[cyclohexyl(3,4-dichlorophenyl)methyl]piperazin-1-yl}methyl)-4-(trifluoromethyl)phenyl]-4-methyl-1,4-diazepane] | > 75% | –
CN1CCCN(c2ccc(C#N)c(CN3CCN(C(c4ccc(Cl)cc4)C4CCC4)CC3)c2)CC1 (stereo not drawn) [Compound 97, 2-({4-[(4-chlorophenyl)(cyclobutyl)methyl]piperazin-1-yl}methyl)-4-(4-methyl-1,4-diazepan-1-yl)benzonitrile] | > 75% | –
CN1CCN(c2ccc(C#N)c(CN3CCN(C(c4ccc(C(F)(F)F)cc4)c4cnccn4)CC3)c2)CC1 (stereo not drawn) [Compound 99] | 50 to 75% | –
CN1CCCN(c2ccc(C(F)(F)F)c(CN3CCN(C(c4ccc(Oc5ccccc5)cc4)c4ccccn4)CC3)c2)CC1 (stereo not drawn) [Compound 100, 1-methyl-4-[3-({4-[(4-phenoxyphenyl)(pyridin-2-yl)methyl]piperazin-1-yl}methyl)-4-(trifluoromethyl)phenyl]-1,4-diazepane] | 50 to 75% | –
CCN1CCC(N(C)c2ccc(C(F)(F)F)c(CN3CCN(C(c4ccc(Sc5ccccc5)cc4)c4ccc(Sc5ccccc5)cc4)CC3)c2)C1 (stereo not drawn) [Compound 101, N-{3-([4-{bis[4-(phenylthio)phenyl]methyl}piperazin-1-yl]methyl)-4-(trifluoromethyl)phenyl}-1-ethyl-N-methylpyrrolidin-3-amine] | > 75% | –
CSc1ccc(C(c2ccc(SC)cc2)N2CCN(Cc3cc(N(C)CCN(C)C)ccc3C#N)CC2)cc1 [Compound 102, 2-({4-(bis(4-(methylthio)phenyl]methyl}piperazin-1-yl)methyl)-4-{[2-(dimethylamino)ethyl](methyl)amino}benzonitrile] | > 75% | –
CN(CCN1CCCC1)c1ccc(C(F)(F)F)c(CN2CCN(C(c3ccc(C(F)(F)F)cc3)c3ccc(C(F)(F)F)cc3)CC2)c1 [Compound 103, 3-([4-{bis[4-(trifluoromethyl)phenyl]methyl}piperazin-1-yl]methyl)-N-methyl-N-[2-(pyrrolidin-1-yl)ethyl]-4-(trifluoromethyl)aniline] | > 75% | –
CN(C)CCN(C)c1ccc(C#N)c(CN2CCN(C(c3ccc(C#N)cc3)C3CCCC3)CC2)c1 (stereo not drawn) [Compound 104, 2-({4-[(4-cyanophenyl)(cyclopentyl)methyl]piperazin-1-yl}methyl)-4-{[2-(dimethylamino)ethyl](methyl)amino}benzonitrile] | > 75% | –
CC(c1ccc(C#N)cc1)N1CCN(Cc2cc(N(C)CCN(C)C)ccc2C(F)(F)F)CC1 (stereo not drawn) [Compound 105, 4-{1-(4-[5-{[2-(dimethylamino)ethyl](methyl)amino}-2-(trifluoromethyl)benzyl]piperazin-1-yl)ethyl}benzonitrile] | > 75% | –
N#Cc1ccc(NCCCn2ccnc2)cc1CN1CCN(C(c2ccc(Cl)cc2)c2ccc(Cl)cc2)CC1 [Compound 106, 4-([3-(1H-imidazol-1-yl)propyl]amino)-2-({4-[bis(4-chlorophenyl)methyl]piperazin-1-yl}methyl)benzonitrile] | > 75% | –
CN(C)CCN(C)c1ccc(C(F)(F)F)c(CN2CCN(c3ccc(Cl)c(Cl)c3)CC2)c1 [Compound 107, N^1-(3-((4-(3,4-dichlorophenyl)piperazin-1-yl)methyl)-4-(trifluoromethyl)phenyl)-N^1,N^2,N^2-trimethylethan-1,2-diamine] | > 75% | –
Cc1cc(N2CCN(Cc3cc(N(C)CCN(C)C)ccc3C(F)(F)F)CC2)ccc1Cl [Compound 108, N^1-(3-((4-(4-chloro-3-methylphenyl)piperazin-1-yl)methyl)-4-(trifluoromethyl)phenyl)-N^1,N^2,N^2-trimethylethan-1,2-diamine] | > 75% | –
CN1CCCN(c2ccc(C(F)(F)F)c(CN3CCN(c4ccc(Cl)c(Cl)c4)CC3)c2)CC1 [Compound 109, 1-(3-((4-(3,4-dichlorophenyl)piperazin-1-yl)methyl)-4-(trifluoromethyl)phenyl)-4-methyl-1,4-diazepane] | > 75% | –
